{"source": "patent EP1094711B1", "about": "“METHODS FOR ERADICATION OF NANOBACTERIA” (Nanobac Oy, priority 1998, dated 2000)", "key": {"nanobacteria [1]": {"test_system": "nanobacteria", "experiment": "Nanobacterial growth and biofilm formation on stents with metal ions in the culture medium", "format": "cell-based", "conditions": "salts added to the culture medium", "description": "Nanobacteria also absorb some heavy metals. Nanobacteria can be stained well with silver or copper compounds. […] Silver and copper parts or platings on surfaces, such as catheters or stents, can provide an antinanobacterial effect by preventing nanobacterial biofilm formation. In in vitro tests nanobacteria avidly formed biofilm on two different commercial stents made of a plastic type of material. This biofilm formation was prevented by the addition of silver or copper salts to the culture medium."}, "nanobacteria [2]": {"test_system": "nanobacteria", "experiment": "Antibiotic sensitivity test by Minimal Inhibition Concentration (MIC), 96-well plates, absorbance at 650 nm", "format": "cell-based", "conditions": "culture medium, 37° Celsius"}, "nanobacteria [3]": {"test_system": "nanobacteria", "experiment": "Antibiotic sensitivity test by Minimal Inhibition Concentration (MIC), 96-well plates, absorbance at 650 nm", "format": "cell-based", "conditions": "for MIC 50: 50% inhibition; for MIC 50 / MIC 90: DMEM with 10% gamma-irradiated FBS; for antinanobacterial effect in the in vitro test (in words): in vitro MIC test", "experimental": "Antibiotic sensitivity tests were carried out by measuring Minimal Inhibition Concentration (MIC), a common practice in clinical microbiology.\nThe tests were performed in 96-well plates. DMEM (commercial cell culture medium) containing 10% gamma-irradiated fetal bovine serum (FBS)(dose about 3 Mrads; this treatment inactivates nanobacteria in the serum so that the basic medium is sterile) was used as the basic culture medium. These components are commercially available, e.g., from Gibco. The antibiotic stock solutions were sterile filtered through 0.2 micrometer filters. The stock solutions were then serially diluted (into the basal culture medium) to provide a final starting concentration of 0.5 mg/ml and 1:2 dilutions therefrom, unless otherwise specified. For each antibiotic three parallel tests were performed using all the antibiotic dilutions and, additionally, positive and negative control experiments. […] 100 µl of dilutions of the nanobacteria inoculum were added to all wells except the negative controls. The plates were incubated at mammalian cell culture conditions (37° Celsius, 5% carbon dioxide, 95% humid air). The absorbance values at 650 nm were recorded by using an ELISA reader at the start, and at 4, 8, 12, 14 days. […] Calculations were based on absorbance curves where absorbance was plotted against concentration of the antibiotic."}, "SF-nanobacteria": {"test_system": "SF-nanobacteria", "experiment": "Chemical disinfection of SF-nanobacteria", "format": "cell-based", "set-up": "key to Resistance of SF-nanobacteria to chemical disinfectants (survival) / partial or total detachment on exposure: +++: No effect; ++: Reduced survival; +: Markedly reduced survival; - : No survival; * = partial or total detachment on exposure", "conditions": "for Resistance of SF-nanobacteria to chemical disinfectants (survival): survival after subculture compared to diluent only; for effect of chemical disinfection on SF-nanobacteria (in words): exposure at room temperature, then subculture", "description": "The cultures were exposed to the disinfectants after removal of the culture medium. For the autoclaving, UV, microwave, and drying treatments, the medium was removed and an equal amount of PBS used instead. For the heat treatments, the SF-nanobacteria were harvested by scraping the culture vessel followed by centrifugation of the medium. The obtained pellet was suspended in PBS and used in the test. After treatments the SF-nanobacteria were subcultured in DMEM medium and the growth followed by light microscopy to see the adherence and typical mineralization.\nThe concentrations of the chemicals used were those commonly used for disinfection or as instructed by the manufacturer. The chemicals included 70% ethanol, 2% glutaraldehyde, 4% formaldehyde, 0.5% hypochlorite, 3% hydrogen peroxide, 1M hydrochloric acid (HCl), 1M sodium hydroxide (NaOH) , 1% sodium dodecyl sulfate (SDS), 1% Tween 80, 1 % Triton X-100, 3M guanidium-hydrochloride, 3M urea, 1% Virkon® (Antec International Ltd., Suffolk, England; 100% product contains 50% potassium persulfate, 5% sulfaminoic acid), 1.5% Erifenol® (Orion OY, Finland; 100% product contains <5% NaOH, <5% o-benzyl-p-chlorophenol, 5-15% p-chloro-m-cresol), 1% Klorilli® (Orion OY, Finland; 100% product contains sodium metasilicate, sodium N-chloro-p-toluenesulfonamide-3-hydrate and 20,000 ppm active chlorine), and 3% Buraton® (Schülke & Mayr, Germany; 100% product contains 4.5% formaldehyde, 6.8% glyoxal, 1.5% glyoxylic acid, 6% dimethylaurylbenzyl-ammonium chloride). The dilutions to be used were freshly prepared on the day of exposure in sterile distilled water. As a positive control, only diluent was used. Negative control contained only culture medium.\nThe SF-nanobacteria were exposed to the chemicals for 10 and 30 minutes at room temperature after removal of the culture medium. After exposure, the disinfectant solution was removed and fresh medium added (with a neutralization step in the case of HCl and NaOH). If any significant deattachment occurred, nanobacteria were recovered by centrifugation, and subcultured. The exposed serum-free cultures were passaged 1:10 after 48 hours and the growth was followed by light microscopy for three weeks."}, "nanobacteria [4]": {"test_system": "nanobacteria", "conditions": "Kajander et al. 1997; cited from earlier work"}, "serum nanobacteria": {"test_system": "serum nanobacteria", "experiment": "Antibiotic sensitivity test of serum nanobacteria with cell culture antibiotics", "format": "cell-based", "conditions": "100 µg/ml, one month, medium containing 10% fetal bovine serum", "experimental": "Nanobacteria were cultured with 10% fetal bovine serum in DMEM medium (serum nanobacteria) for one month at 37°C in an atmosphere of 5% CO2 - 95% air. The cultures were harvested by centrifugation. For the autoclaving, UV, microwave, heating and drying treatments, the harvested nanobacteria were suspended in phosphate buffered saline (pH 7.4; PBS). After treatments, subculturing of the nanobacteria was made in 10% gamma irradiated fetal bovine serum in DMEM medium. The growth of serum nanobacteria was followed by light microscopy and absorbance measurement with a spectrophotometer at 650 nm.\nThe 1× concentrations are those recommended for cell culture. […]"}, "nanobacteria [5]": {"test_system": "nanobacteria", "experiment": "Treatment of human patients infected with nanobacteria", "conditions": "person with chronic fatigue syndrome; 500 mg 4 times per day for one month; after one month therapy"}, "[6]": {"conditions": "90% inhibition, 12 day time point"}, "[7]": {"conditions": "Exposure time 30 min, room temperature"}, "[8]": {"conditions": "Exposure time 10 min, room temperature"}}, "note": "pIC50: −log10 of the molar value. Where a name gives a salt, the structure may show the parent alone."}
{"molecule": "[Cu]", "note": "[copper]", "values": [{"measurement": "biofilm formation on commercial stents", "setting": "nanobacteria [1]", "value": "prevented"}]}
{"molecule": "Doxycycline", "values": [{"measurement": "stability under the test conditions", "setting": "nanobacteria [2]", "value": "not stable"}, {"measurement": "MIC 50", "setting": "nanobacteria [3]; 12 day time point", "value": 50, "unit": "mg/L"}, {"measurement": "MIC 90", "setting": "nanobacteria [3]; [6]", "value": 80, "unit": "mg/L"}, {"measurement": "antinanobacterial effect in the in vitro test (in words)", "setting": "nanobacteria [3]", "value": "effective on inhibiting nanobacterial growth"}]}
{"molecule": "hydrochloric acid [1M HCl]", "values": [{"measurement": "partial or total detachment on exposure", "setting": "SF-nanobacteria; [7]", "value": "*"}, {"measurement": "Resistance of SF-nanobacteria to chemical disinfectants (survival)", "setting": "SF-nanobacteria; [7]", "value": "++"}, {"measurement": "effect of chemical disinfection on SF-nanobacteria (in words)", "setting": "SF-nanobacteria; listed as Hydrochloric acid", "value": "dissolved the apatite layer"}, {"measurement": "effect of chemical disinfection on SF-nanobacteria (in words)", "setting": "SF-nanobacteria; listed as hydrochloric acid", "value": "could not kill nanobacteria"}]}
{"molecule": "CCO", "note": "[70% ethanol, ethanol]", "values": [{"measurement": "Resistance of SF-nanobacteria to chemical disinfectants (survival)", "setting": "SF-nanobacteria; [8]", "value": "+++"}, {"measurement": "Resistance of SF-nanobacteria to chemical disinfectants (survival)", "setting": "SF-nanobacteria; [7]", "value": "+++"}]}
{"molecule": "silver", "values": [{"measurement": "biofilm formation on commercial stents", "setting": "nanobacteria [1]", "value": "prevented"}]}
{"molecule": "Triton X-100 [1 % Triton X-100]", "values": [{"measurement": "Resistance of SF-nanobacteria to chemical disinfectants (survival)", "setting": "SF-nanobacteria; [8]", "value": "+++"}, {"measurement": "Resistance of SF-nanobacteria to chemical disinfectants (survival)", "setting": "SF-nanobacteria; [7]", "value": "+++"}]}
{"molecule": "[Na+].[OH-]", "note": "[1M NaOH, sodium hydroxide]", "values": [{"measurement": "Resistance of SF-nanobacteria to chemical disinfectants (survival)", "setting": "SF-nanobacteria; [8]", "value": "+++"}, {"measurement": "Resistance of SF-nanobacteria to chemical disinfectants (survival)", "setting": "SF-nanobacteria; [7]", "value": "+++"}]}
{"molecule": "O=C(O)CN(CCN(CC(=O)O)CC(=O)O)CC(=O)O", "note": "[EDTA, ethylenediaminetetraacetic acid]", "values": [{"measurement": "IC90", "setting": "nanobacteria [3]; 288 h, 90% inhibition, 12 day time point, read-out: MIC 90", "value": 2.5, "unit": "mM"}, {"measurement": "pIC50", "setting": "nanobacteria [3]; 288 h, read-out: MIC 50", "value": 3.52}, {"measurement": "antinanobacterial effect in the in vitro test (in words)", "setting": "nanobacteria [3]", "value": "antinanobacterial effects"}, {"measurement": "effect on growth of nanobacteria", "setting": "nanobacteria [4]", "value": "inhibts growth"}]}
{"molecule": "Gentamycin", "values": [{"measurement": "morphology of nanobacteria in SEM", "setting": "serum nanobacteria", "value": "changes in the morphology"}, {"measurement": "MIC 50", "setting": "nanobacteria [3]; 12 day time point", "value": 60, "unit": "mg/L"}, {"measurement": "MIC 90", "setting": "nanobacteria [3]; [6]", "value": 250, "unit": "mg/L"}, {"measurement": "antinanobacterial effect in the in vitro test (in words)", "setting": "nanobacteria [3]", "value": "bacteriostatic effects at high antibiotic concentrations"}]}
{"molecule": "CN(C)[C@@H]1C(O)=C(C(N)=O)C(=O)[C@@]2(O)C(O)=C3C(=O)c4c(O)cccc4[C@@](C)(O)[C@H]3C[C@@H]12", "note": "[tetracycline HCl]", "values": [{"measurement": "nanobacteria status of the patient (urine and serum samples)", "setting": "nanobacteria [5]", "value": "nanobacteria negative"}]}
